Laboratory results reported in PMC3676450 (Journal of medicinal chemistry, 2013).

Experiments:
[1] = molecular target: T1, hM5 mAcChR (Homo sapiens, UniProt P08912); assay: [3H]NMS binding to membranes from CHO-K1 cells expressing hM5
T1 sequence (P08912 1-532): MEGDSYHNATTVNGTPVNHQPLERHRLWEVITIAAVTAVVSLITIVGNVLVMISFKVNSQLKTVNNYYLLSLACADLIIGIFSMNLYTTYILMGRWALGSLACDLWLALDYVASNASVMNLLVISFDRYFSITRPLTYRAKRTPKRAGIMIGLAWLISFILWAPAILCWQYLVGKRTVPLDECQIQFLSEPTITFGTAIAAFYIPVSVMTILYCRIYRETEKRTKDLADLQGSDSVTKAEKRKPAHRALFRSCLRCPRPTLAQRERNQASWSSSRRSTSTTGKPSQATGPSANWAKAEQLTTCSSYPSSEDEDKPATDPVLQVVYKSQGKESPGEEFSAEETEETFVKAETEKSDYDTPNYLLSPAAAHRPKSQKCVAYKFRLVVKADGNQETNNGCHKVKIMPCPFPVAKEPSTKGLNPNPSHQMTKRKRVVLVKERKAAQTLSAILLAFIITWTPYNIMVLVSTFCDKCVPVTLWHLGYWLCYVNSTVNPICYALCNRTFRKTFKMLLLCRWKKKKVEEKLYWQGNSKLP

[2] = molecular target: T2, hM1 mAcChR (Homo sapiens, UniProt P11229); assay: [3H]N-methylscopolamine; format: binding
T2 sequence (P11229 1-460): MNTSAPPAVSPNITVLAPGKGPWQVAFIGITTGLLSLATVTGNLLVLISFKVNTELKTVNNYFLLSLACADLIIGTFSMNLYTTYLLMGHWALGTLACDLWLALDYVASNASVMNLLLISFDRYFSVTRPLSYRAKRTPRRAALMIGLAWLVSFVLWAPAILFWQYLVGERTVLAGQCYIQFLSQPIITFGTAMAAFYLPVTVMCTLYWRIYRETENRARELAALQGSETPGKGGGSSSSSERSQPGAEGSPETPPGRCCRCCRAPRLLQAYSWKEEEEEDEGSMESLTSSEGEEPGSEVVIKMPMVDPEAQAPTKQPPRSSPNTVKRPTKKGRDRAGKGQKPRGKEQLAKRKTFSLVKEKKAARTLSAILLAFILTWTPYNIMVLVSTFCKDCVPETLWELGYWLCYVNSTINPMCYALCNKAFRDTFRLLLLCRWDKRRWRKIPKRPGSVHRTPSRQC

SMILES | M1/M5 [1] | M2/M5 [1] | M3/M5 [1] | M4/M5 [1] | binding affinity at M1 receptor (in words) [2] | binding affinity at M5 receptor (in words) [1] | other results
CCN1CCC(c2ccccc2)=C(C(=O)OCCc2ccc3c(c2)CCO3)C1 [Compound 28] | 1,390 (6.0) | >100,000 (>435) | 31,100 (135) | 10,500 (46) |  |  | 
COc1ccc(CCOC(=O)C2=C(c3ccccc3)CCN(C)C2)cc1 [Compound 42] |  |  |  |  |  |  | increase in binding affinity at M1 relative to compound 8 [2]: 8 fold; increase in binding affinity at M5 relative to compound 8 [1]: 14 fold
CN1CCC(c2ccccc2F)=C(C(=O)OCCc2ccc3c(c2)CCO3)C1 [Compound 63] | 5,270 (7.1) | 540 (0.7) | 4,890 (6.6) | 5,740 (7.8) |  |  | 
CCCCN1CCC(c2ccccc2)=C(C(=O)OCCc2ccc(OC)cc2)C1 [Compound 44] |  |  |  |  | eliminated affinity | eliminated affinity | 
CCCN1CCC(c2ccccc2)=C(C(=O)OCCc2ccc(OC)cc2)C1 [Compound 43] |  |  |  |  | eliminated affinity | eliminated affinity | 
CCN1CCC(c2ccccc2)=C(C(=O)OCCc2cccc(OC)c2)C1 [Compound 18] |  |  |  |  |  |  | increase in binding affinity at M5 relative to compound 8 [1]: 3 fold; increase in binding affinity at M5 relative to compound 17 [1]: 8 fold
CCN1CCC(c2ccccc2)=C(C(=O)OCCc2ccc(S(C)(=O)=O)cc2)C1 [Compound 27] |  |  |  |  | little affinity | little affinity | 
CN1CC=C(c2ccccc2C(=O)OCCc2ccc3c(c2)CCO3)CC1 [Compound 89] |  |  |  |  | complete loss of binding affinity | complete loss of binding affinity | 
COc1ccc(CCOC(=O)C2=C(c3ccccc3)CCN(Cc3ccc(OC)cc3)C2)cc1 [Compound 40] |  |  |  |  | eliminated affinity | eliminated affinity | 
COc1ccc(CCOC(=O)C2=C(c3cccc(F)c3)CCN(C)C2)cc1OC [Compound 66] |  | >100,000 (>30) | >100,000 (>30) | >100,000 (>30) |  |  | 
CN1CCC(c2ccccc2)=C(C(=O)OCCc2ccc3c(c2)CCO3)C1 [Compound 45] | 290 (4.8) | 1,170 (20) | 2,840 (47) | 1,890 (32) |  |  | 
CN1CCC(c2ccccc2)=C(C(=O)OCCc2cccc3ccccc23)C1 [Compound 57] | 24,400 (4.8) | >100,000 (>20) | >100,000 (>20) | >100,000 (>20) |  |  | 
